From PMC10373461, “Discovery of a Hidden Trypanosoma cruzi Spermidine Synthase Binding Site and Inhibitors through In Silico, In Vitro, and X-ray Crystallography” (ACS Omega, 2023) come the findings set out here.

The target in experiment [1] is T1, Trypanosoma cruzi spermidine synthase (TcSpdSyn) (Trypanosoma cruzi, UniProt Q4DA73).
T1 construct: gene Tc00.1047053510339.50
T1 sequence (Q4DA73 1-296): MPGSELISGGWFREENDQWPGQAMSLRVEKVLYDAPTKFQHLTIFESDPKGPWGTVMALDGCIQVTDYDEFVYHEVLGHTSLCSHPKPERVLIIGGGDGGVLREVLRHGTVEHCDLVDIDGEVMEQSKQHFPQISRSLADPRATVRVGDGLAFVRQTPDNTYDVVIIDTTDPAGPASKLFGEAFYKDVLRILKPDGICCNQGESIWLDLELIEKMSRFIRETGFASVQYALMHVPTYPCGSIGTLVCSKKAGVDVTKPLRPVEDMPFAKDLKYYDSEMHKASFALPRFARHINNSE
Kind of experiment: X-ray co-crystal structure; SSAT1-coupled enzyme inhibition assay. Type of experiment: biochemical.

Experiment [2] has as its target T1, Trypanosoma cruzi spermidine synthase (TcSpdSyn). Put plainly: X-ray co-crystal structure; SSAT1-coupled enzyme inhibition assay (hydrochloride salt). It is filed as biochemical.

As usually defined, the IC50 is the concentration that gives 50% inhibition.

Molecules are shown by their SMILES.

`COc1ccc(C2=N[C@H](C)CN2)c(O)c1` [compound 1] came in with an IC50 in experiment [1] of 82.3 µM. For `COc1ccc(Nc2ccnc3ccccc23)cc1` [compound 2], the IC50 in experiment [2] was 43.4 µM.
